Test results from patent US20250296971A1, “GASTRIC INHIBITORY PEPTIDE RECEPTOR LIGANDS” (priority 2021, published 2025).
Read-outs that look alike come from different tables or passages of the source. *1 amine or outer side, *2 acyl side, *3 side chain or, on linkers, in order; H or OH if unused. Where a SMILES comes first, the peptide text is derived from it. Bridges are numbered along the chain shown (N, C = ends). [ ]: non-standard residue; d: D form. The star is where a group is joined. X5 = NC(=O)[C@H](CCCCNC(=O)CN1CCN(CC(=O)O)CCN(CC(=O)O)CCN(CC(=O)O)CC1)NC(=O)CCC(=O)NCCCOCCOCCOCCCN*; X13 = O=C(CN1CCN2CCN3CCN(CC1)CC(=O)[O][Lu]([O]C(=O)C2)[O]C(=O)C3)NCCCOCCOCCOCCCN*; X18 = O=C(CCN(CC(=O)[*:2])[*:1])NC[C@H](O)[C@@H](O)[C@H](O)[C@H](O)CO; DOTA = O=C(O)CN1CCN(CC(=O)O)CCN(CC(=O)*)CCN(CC(=O)O)CC1; Trp(5-Cl) = N[C@@H](Cc1c[nH]c2ccc(Cl)cc12)C(=O)O; Phe(3,4-Cl2) = N[C@@H](Cc1ccc(Cl)c(Cl)c1)C(=O)O; Pyridine(2,6-diCH2) = c1cc(C[*:1])nc(C[*:2])c1; Trp(7-F) = N[C@@H](Cc1c[nH]c2c(F)cccc12)C(=O)O; NMeW = CN[C@@H](Cc1c[nH]c2ccccc12)C(=O)O; 1Nal = N[C@@H](Cc1cccc2ccccc12)C(=O)O; mXylylene = c1cc(C[*:1])cc(C[*:2])c1; Glutaryl = O=C(CCCC(=O)[*:2])[*:1]; X7 = c1cc(CSCCN[*:2])cc(C[*:1])c1; Hyp = O=C(O)[C@@H]1C[C@@H](O)CN1; Cha = N[C@@H](CC1CCCCC1)C(=O)O; Suc = O=C(CCC(=O)[*:2])[*:1]; Thp = NC1(C(=O)O)CCOCC1; Aib = CC(C)(N)C(=O)O

Target: T1, GIPR (CHO-K1-hGIPR cells) (Homo sapiens, UniProt P48546)
T1 construct: host or cells: CHO-K1
T1 sequence (P48546 22-466): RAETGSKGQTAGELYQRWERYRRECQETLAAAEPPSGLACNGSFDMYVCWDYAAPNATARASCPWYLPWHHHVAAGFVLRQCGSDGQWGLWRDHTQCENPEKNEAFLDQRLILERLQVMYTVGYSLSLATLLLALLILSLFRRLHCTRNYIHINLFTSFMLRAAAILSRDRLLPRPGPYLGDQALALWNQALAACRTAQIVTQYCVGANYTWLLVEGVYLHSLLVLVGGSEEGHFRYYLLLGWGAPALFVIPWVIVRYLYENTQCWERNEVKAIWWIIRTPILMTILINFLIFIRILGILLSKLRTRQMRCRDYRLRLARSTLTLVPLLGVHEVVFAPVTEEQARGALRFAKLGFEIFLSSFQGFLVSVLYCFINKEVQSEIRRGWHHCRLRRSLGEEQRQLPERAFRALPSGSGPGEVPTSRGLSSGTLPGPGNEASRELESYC
Experiment: FACS binding assay
Summary of the method: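 Read-out: flow cytometric median fluorescence intensity, APC/Cy5 channel, plotted vs peptide conc.; 4PL fit → EC50/pEC50 or IC50/pIC50. Cells: CHO-K1-hGIPR, Accutase-detached, 500.000/mL in PBS + 1% FCS. Detection: APC-streptavidin 1 μg/mL, 30 min, on ice.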

[1] = competition with 20 nM GIP-057, 4° C., 1 hour, read-out: pIC50 Category (converted)
[2] = competition with 20 nM GIP-057, 4° C. for 1 hour, read-out: pIC50 Category (converted)

IC50 [1] [µM] | IC50 [2] [µM] | SMILES | also measured
< 0.01 | – | CC[C@H](C)[C@@H]1NC(=O)[C@H](CC(C)C)NC(=O)C2(CCOCC2)NC(=O)[C@@H](NC(=O)[C@@H](CC(C)C)NC(=O)[C@H](CCC(=O)O)NC(=O)CN(CCC(=O)NC[C@H](O)[C@@H](O)[C@H](O)[C@H](O)CO)C(=O)[C@H](Cc2c[nH]c3ccc(Cl)cc23)NC(=O)[C@H](Cc2c[nH]c3ccccc23)NC(=O)[C@H](CC(=O)O)NC(C)=O)CSCc2cccc(n2)CSC[C@@H](C(N)=O)NC1=O [GIP-176, Ac-Asp-Trp-5Clw-Nglu(AGLU)-Glu-leu-[Cys(2Lut)-Thp-Leu-Ile-Cys]-NH2] (Ac-DW[Trp(5-Cl)][X18]E[dL]C[Thp]LIC-NH2; linker 7-11 via Pyridine(2,6-diCH2)) | –
< 0.01 | – | CC[C@H](C)[C@@H]1NC(=O)[C@H](CC(C)C)NC(=O)C2(CCOCC2)NC(=O)[C@@H](NC(=O)[C@@H](CC(C)C)NC(=O)[C@H](CCC(=O)O)NC(=O)[C@@H]2C[C@@H](O)CN2C(=O)[C@H](Cc2c[nH]c3c(F)cccc23)NC(=O)[C@H](Cc2c[nH]c3ccccc23)NC(=O)[C@H](CC(=O)O)NC(C)=O)CSCc2cccc(n2)CSC[C@@H](C(N)=O)NC1=O [GIP-227, Ac-Asp-Trp-7Fw-Hyp-Glu-leu-[Cys(2Lut)-Thp-Leu-Ile-Cys]-NH2] (Ac-DW[Trp(7-F)][Hyp]E[dL]C[Thp]LIC-NH2; linker 7-11 via Pyridine(2,6-diCH2)) | –
– | > 1 | CC[C@H](C)[C@@H]1NC(=O)[C@H](CC(C)C)NC(=O)C(C)(C)NC(=O)[C@@H](NC(=O)[C@H](CC(C)C)NC(=O)[C@H](CCC(=O)O)NC(=O)[C@@H]2CCCN2C(=O)[C@H](Cc2c[nH]c3ccccc23)NC(=O)[C@H](Cc2c[nH]c3ccccc23)N(C)C(=O)[C@H](CC(=O)O)NC(C)=O)CSCc2cccc(c2)CSC[C@@H](C(=O)NCCCOCCOCCOCCCNC(=O)CCC(=O)N[C@@H](CCCCNC(=O)CN2CCN(CC(=O)O)CCN(CC(=O)O)CCN(CC(=O)O)CC2)C(N)=O)NC1=O [GIP-297, Ac-Asp-Nmw-Trp-Pro-Glu-Leu-[Cys(3MeBn)-Aib-Leu-Ile-Cys]-Ttds-Lys(DO TA)-NH2] (Ac-D[NMeW]WPELC[Aib]LIC-X5; linker 7-11 via mXylylene) | –
– | > 1 | CC[C@H](C)[C@@H]1NC(=O)[C@H](CC(C)C)NC(=O)[C@H](C)NC(=O)[C@@H](NC(=O)[C@H](CC(C)C)NC(=O)[C@H](CCC(=O)O)NC(=O)[C@@H]2CCCN2C(=O)[C@@H](Cc2c[nH]c3ccccc23)NC(=O)[C@H](Cc2c[nH]c3ccccc23)NC(=O)[C@H](CC(=O)O)NC(=O)[C@H](Cc2ccc(O)cc2)NC(=O)[C@@H](N)CCSC)CSCc2cccc(c2)CSC[C@@H](C(N)=O)NC1=O [GIP-329, H-Met-Tyr-Asp-Trp-trp-Pro-Glu-Leu-[Cys(3MeBn)-Ala-Leu-Ile-Cys]-NH2] (H-MYDW[dW]PELCALIC-NH2; linker 9-13 via mXylylene) | –
– | > 1 | CC[C@H](C)[C@@H]1NC(=O)[C@H](CC(C)C)NC(=O)C(C)(C)NC(=O)[C@@H](NC(=O)[C@H](CC2CCCCC2)NC(=O)[C@H](CCC(=O)O)NC(=O)[C@@H]2CCCN2C(=O)[C@H](Cc2c[nH]c3ccccc23)NC(=O)[C@H](Cc2c[nH]c3ccccc23)NC(=O)[C@H](CC(=O)O)NC(C)=O)CSCc2cccc(c2)CSC[C@@H](C(=O)NCCCOCCOCCOCCCNC(=O)CCC(=O)N[C@@H](CCCCNC(=O)CN2CCN(CC(=O)O)CCN(CC(=O)O)CCN(CC(=O)O)CC2)C(N)=O)NC1=O [GIP-295, Ac-Asp-Trp-Trp-Pro-Glu-Cha-[Cys(3MeBn)-Aib-Leu-Ile-Cys]-Ttds-Lys(DOTA)-NH2] (Ac-DWWPE[Cha]C[Aib]LIC-X5; linker 7-11 via mXylylene) | –
< 0.01 | – | CC[C@H](C)[C@@H]1NC(=O)[C@H](CC(C)C)NC(=O)C(C)(C)NC(=O)[C@@H](NC(=O)[C@@H](CC(C)C)NC(=O)[C@H](CCC(=O)O)NC(=O)[C@@H]2CCCN2C(=O)[C@H](Cc2cccc3ccccc23)NC(=O)[C@H](Cc2c[nH]c3ccccc23)NC(=O)[C@H](CC(=O)O)NC(C)=O)CSCc2cccc(c2)CSC[C@@H](C(=O)NCCCOCCOCCOCCCNC(=O)CCC(=O)N[C@@H](CCCCNC(=O)CN2CCN(CC(=O)O)CCN(CC(=O)O)CCN(CC(=O)O)CC2)C(N)=O)NC1=O [GIP-078, Ac-Asp-Trp-1Ni-Pro-Glu-leu-[Cys(3MeBn)-Aib-Leu-Ile-Cys]-Ttds-Lys(DOTA)-NH2] (Ac-DW[1Nal]PE[dL]C[Aib]LIC-X5; linker 7-11 via mXylylene) | –
– | 0.01 to 0.0794 | CC(=O)N[C@@H](CC(=O)O)C(=O)N[C@@H](Cc1c[nH]c2ccccc12)C(=O)N[C@@H](Cc1c[nH]c2ccc(Cl)cc12)C(=O)N1C[C@H](O)C[C@H]1C(=O)N[C@@H](CCC(=O)O)C(=O)N[C@H](CC(C)C)C(=O)N[C@H]1CSCc2cccc(n2)CSC[C@@H](C(=O)N[C@H](CCCCNC(=O)CN2CCN(CC(=O)O)CCN(CC(=O)O)CCN(CC(=O)O)CC2)C(N)=O)NC(=O)[C@H](Cc2ccccc2)NC(=O)[C@H](CC(C)C)NC(=O)C2(CCOCC2)NC1=O [GIP-389, Ac-Asp-Trp-5Clw-Hyp-Glu-leu-[Cys(2Lut)-Thp-Leu-Phe-Cys]-lys (DOTA)-NH2] (Ac-DW[Trp(5-Cl)][Hyp]E[dL]C[Thp]LFC[dK](DOTA)-NH2; linker 7-11 via Pyridine(2,6-diCH2)) | –

More lines, now with the values behind:

SMILES | IC50 [1] [µM] | IC50 [2] [µM] | also measured
CC[C@H](C)[C@@H]1NC(=O)[C@H](CC(C)C)NC(=O)C2(CCOCC2)NC(=O)[C@@H](NC(=O)[C@@H](CC(C)C)NC(=O)[C@H](CCC(=O)O)NC(=O)[C@@H]2C[C@@H](O)CN2C(=O)[C@H](Cc2c[nH]c3ccc(Cl)cc23)NC(=O)[C@H](Cc2c[nH]c3ccccc23)NC(=O)CCCC(=O)O)CSCc2cccc(n2)CSC[C@@H](C(N)=O)NC1=O [GIP-214, HO-Glutar-Trp-5Clw-Hyp-Glu-leu-[Cys(2Lut)-Thp-Leu-Ile-Cys]-NH2] (Glutaryl-W[Trp(5-Cl)][Hyp]E[dL]C[Thp]LIC-NH2; linker 6-10 via Pyridine(2,6-diCH2)) | < 0.01 | – | –
CC[C@H](C)[C@@H]1NC(=O)[C@H](CC(C)C)NC(=O)[C@H](Cc2c[nH]c3ccccc23)NC(=O)[C@@H](NC(=O)[C@@H](CC(C)C)NC(=O)[C@H](CCC(=O)O)NC(=O)[C@@H]2C[C@@H](O)CN2C(=O)[C@H](Cc2c[nH]c3ccc(Cl)cc23)NC(=O)[C@H](Cc2c[nH]c3ccccc23)NC(=O)[C@H](CC(=O)O)NC(C)=O)CSCc2cccc(n2)CSC[C@@H](C(N)=O)NC1=O [GIP-234, Ac-Asp-Trp-5Clw-Hyp-Glu-leu-[Cys(2Lut)-Trp-Leu-Ile-Cys]-NH2] (Ac-DW[Trp(5-Cl)][Hyp]E[dL]CWLIC-NH2; linker 7-11 via Pyridine(2,6-diCH2)) | < 0.01 | – | –
CCOCCOCCOCCOCCOCCOCCOCCOCCOCCOCCOCCOCCOCCOCCOCCOCCOCCOCCOCCOCCOCCOCCOCCOCCOCCOCCOCCOCCOCCOCCOCCOCCOCCOCCOCCOCCOCC(=O)NC1CCN(CC(=O)N[C@@H](CC(=O)O)C(=O)N[C@@H](Cc2c[nH]c3ccccc23)C(=O)N[C@@H](Cc2c[nH]c3ccc(Cl)cc23)C(=O)N2C[C@H](N)C[C@H]2C(=O)N[C@@H](CCC(=O)O)C(=O)N[C@H](CC(C)C)C(=O)N[C@H]2CSCc3cccc(n3)CSC[C@@H](C(=O)NC3CCN(CC(=O)N[C@H](CCC(=O)NC[C@H](O)[C@@H](O)[C@H](O)[C@H](O)CO)C(N)=O)CC3)NC(=O)[C@H]([C@@H](C)CC)NC(=O)[C@H](CC(C)C)NC(=O)C3(CCN(C(=O)CN4CCN(CC(=O)O)CCN(CC(=O)O)CCN(CC(=O)O)CC4)CC3)NC2=O)CC1 [GIP-042, MeO36PEG-APAc-Asp-Trp-5Clw-Tap-Glu-leu-[Cys(2Lut)-Apc(DOTA)-Leu-Ile-Cys]-APAc-glu(AGLU)-NH2] | 0.01 to 0.0794 | – | –
CC[C@H](C)[C@@H]1NC(=O)[C@H](CC(C)C)NC(=O)C2(CCOCC2)NC(=O)[C@@H](NC(=O)[C@@H](CC(C)C)NC(=O)[C@H](CCC(=O)O)NC(=O)[C@@H]2C[C@@H](O)CN2C(=O)[C@H](Cc2c[nH]c3ccc(Cl)cc23)NC(=O)[C@H](Cc2ccc(Cl)c(Cl)c2)NC(=O)[C@H](CC(=O)O)NC(C)=O)CSCc2cccc(n2)CSC[C@@H](C(N)=O)NC1=O [GIP-211, Ac-Asp-Eaa-5Clw-Hyp-Glu-leu-[Cys(2Lut)-Thp-Leu-Ile-Cys]-NH2] (Ac-D[Phe(3,4-Cl2)][Trp(5-Cl)][Hyp]E[dL]C[Thp]LIC-NH2; linker 7-11 via Pyridine(2,6-diCH2)) | < 0.01 | – | –
CC[C@H](C)[C@@H]1NC(=O)[C@H](CC(C)C)NC(=O)C(C)(C)NC(=O)[C@@H](NC(=O)[C@@H](CC(C)C)NC(=O)[C@H](CCC(=O)O)NC(=O)[C@@H]2C[C@@H](O)CN2C(=O)[C@H](Cc2c[nH]c3ccc(Cl)cc23)NC(=O)[C@H](Cc2c[nH]c3ccccc23)NC(=O)[C@H](CC(=O)O)NC(=O)CCC(=O)NCCCOCCOCCOCCCNC(=O)CN2CCN3CCN4CCN(CC2)CC(=O)[O][Lu]([O]C(=O)C3)[O]C(=O)C4)CSCc2cccc(c2)CSCCNC1=O [GIP-159, LuDOTA-Ttds-Asp-Trp-5Clw-Hyp-Glu-leu-[Cys(3MeBn)-Aib-Leu-Ile-AET]] ({X13-Suc}-DW[Trp(5-Cl)][Hyp]E[dL]C[Aib]LI; linker 7-C via X7) | – | – | IC50 (pIC50 Category, competition with 20 nM GIP-057, 4° C., 1 hour): < 0.01 µM
